pIC50: −log10 of the molar value. Where “and” joins values, the source holds several entries; their conditions need not be identical. Equal values may be shown once.
How the values were obtained:
Type in all cases: cell-based
CH1 = test: Cytotoxicity, adherent cells, 14C-thymidine incorporation (cell proliferation); details: CH1 human ovarian cancer, 96 h treatment
Excerpt: (§1) CH1 and CH1 CisR are human ovarian cancers which are sensitive and resistant to cisplatin, respectively. The relative sensitivity of the CH1 cell may be at least partially attributed to a deficiency of a gene involved in repair processes and which is capable of removing the adducts (Chemico-Biological Interactions, 1999; 123:11-29). The CH1cisR cell is resistant to cisplatin through a poorly known mechanism of DNA repair, or increase in the tolerance of the cell to the damage caused by cisplatin to the DNA of this cell (Mol Pharmacol 2003; 63:933-944, Cancer Res 52: 3857-3864).
(§2) Cell proliferation is evaluated by the incorporation of ^14C-thymidine into the DNA of the cells. A549, CH1, CH1/DDP and H460 are cultured in Dulbecco's modified Eagle's medium (DMEM), SK-OV-3 in Mc-Coy medium, A2780 and A2780/DDP in RPMI1640 medium. All the media contain 10% foetal calf serum, 2 mM L-glutamine, 100 units/ml of penicillin and […] of streptomycin. The incubation is performed at 37° C. in a 95% air/5% CO2 atmosphere.
(§3) The cells, at the exponential growth phase, are introduced into the wells of a Cytostar 96-well plate, containing a scintillation fluid (Cytostar-T scintillating microplate, GE Healthcare Bio-Sciences AB, Uppsala, Sweden), at the density of 5×10^3 to 10^4 cells per well, in an amount of 180 μl per well. After incubating for 4 hours, the test compounds are added. The compounds are prepared beforehand as a stock solution at the concentration of 10 mM in DMSO. A serial dilution is performed before the compounds are brought into contact with the cells in a volume of 10 μl. After incubating for 72 hours at 37° C. in an atmosphere of 95% air/5% CO2, 0.1 μCi/well of ^14C-thymidine is added. 24 h later (total 96 h of treatment), the incorporation of ^14C-thymidine is recorded on a suitable scintillation counter (MicroBeta radioactivity counting, Perkin-Elmer Life Sciences, Boston, Mass., USA). The mean values obtained in the experimental groups are divided by the mean values obtained in the control groups in order to obtain percentages relative to the controls.
(§4) The IC50 values are evaluated from curves presenting the percentage viability as a function of the concentration of the test compound, using the Biostat speed software. The IC50 is defined as the concentration of the compound which inhibits 50% of the cell proliferation or 50% of the cell viability.

CH1/DDP = test: as above; details: CH1/DDP cisplatin-resistant human ovarian cancer, 96 h treatment
Excerpt: as §1, §2, §3, §4

A2780/DDP = test: as above; details: A2780/DDP cisplatin-resistant human ovarian cancer, 96 h treatment
Excerpt: (§5) A2780 and A2780/DDP are human ovarian cancer lines. […] The resistance of the A2780/DDP line is of the acquired type and involves various mechanisms: —reduction in the capacity for internalization of cisplatin, —replicative bypass (this is defined as the possibility for a replicative complex to synthesize DNA beyond the site of damage) (Cancer Res 1994; 54:3500-3505), —active detoxification by glutathione (Exp Oncol 2005; 27:191-195), —low activity of Caspase-3, enzymes involved in the process of programmed cell death (J Cancer Res Clin Oncol 2004; 130:423-428) and finally high nuclear efflux of platinum compounds (Oncol Rep 2004; 12:1365-1370).
as §2, §3, §4

A2780 = test: as above; details: A2780 human ovarian cancer, 96 h treatment
Excerpt: as §5, §2, §3, §4

H460 = test: as above; details: NCI-H460 human non-small cell lung cancer, 96 h treatment
Description: NCI-H460 is a human non-small cell lung cancer which has a mutation in the K-ras gene. This cell is sensitive to platinum compounds. In this cell line, cisplatin forms more adducts than oxaliplatin at the same concentration and yet the percentage repair is higher for oxaliplatin (DNA Repair 2006, 5: 219-225).
as §2, §3, §4

CCRF-CEM cells = test: Cytotoxicity, non-adherent CCRF-CEM cells, CellTiter-Glo luminescent cell viability; details: CCRF-CEM human T leukaemia, 96 h incubation
Description: CCRF-CEM is a human T leukaemia (Cancer 1965, 18: 522-529). Oxaliplatin induces bifunctional lesions such as inter- and intra-DNA strand adducts on these CCRF-CEM cells (Mol Pharmacol 2000, 58: 920-927). […] This deficiency makes these cells particularly […] to alkylating agents and to platinum compounds.
For the non-adherent CCRF-CEM cells, the cell viability is measured by the luminescence test CellTiter-Glo® Luminescent Cell Viability Assay (Promega, Madison, Wis., USA). When it is added to the cells, the reagent produces a luminescence in the presence of the ATP of the living cells. The results are evaluated on a suitable reader (Envision, Perkin-Elmer Life Sciences, Boston, Mass., USA).
The CCRF-CEM cells are cultured in RPMI1640 medium containing 10% foetal calf serum, 2 mM L-glutamine, 100 units/ml of penicillin and […] of streptomycin, at 37° C. in a 95% air/5% CO2 atmosphere. The cells, at the exponential growth phase, are introduced into the wells of a 96-well plate at the density of 5×10^3 cells per well in an opaque plate (Greiner), in a volume of 150 μl. After incubating for 4 h at 37° C. in a 95% air/5% CO2 atmosphere, the compounds (concentrated 20-fold) are added in a volume of 8 μl. The compounds are prepared beforehand as a stock solution at the concentration of 10 mM in DMSO. A serial dilution is performed before the compounds are brought into contact with the cells. After incubating for 96 h at 37° C., 100 μl of agents (CellTiter-Glo) are added. After lysing the cells, the release of ATP is evaluated on the Envision reader.
as §4

SK-OV-3 = test: Cytotoxicity, adherent cells, 14C-thymidine incorporation (cell proliferation); details: SK-OV-3 human ovarian cancer, 96 h treatment, read-out: SKOV3 IC50
Description: SK-OV-3 is a human ovarian cancer. […] This cell has an intrinsic mechanism of resistance to cisplatin which is linked to high levels of glutathione (Br J Cancer 1998; 78:175-180). This cell line is commonly used to explore the effects of high levels of glutathione on the resistance to platinum compounds (Br J Cancer 1996, 74: 380-386).
as §2, §3, §4

| Molecule | pIC50 (CH1) | pIC50 (CH1/DDP) | pIC50 (A2780/DDP) | pIC50 (A2780) | pIC50 (H460) | pIC50 (CCRF-CEM cells) | pIC50 (SK-OV-3) |
| --- | --- | --- | --- | --- | --- | --- | --- |
| Cn1[c](=[Pt-]([I])([I])[NH2+]C2CC3CCC2C3)n(C)c2ccccc21 (racemic) [Example 7, trans-diiodo(N-exo(+/−)bicyclo[2.2.1]heptylamine)(1,3-dimethyl-benzimidazol-2-ylidene)platinum(II)] | 5.60 | 5.62 | 5.74 | 6.40 | 5.72 | 5.89 | 5.15 |
| Cn1[c](=[Pt-]([I])([I])[NH2+]C2CC3CCC2C3)n(C)c2ccccc21 (single isomer, unassigned) [Example 16, trans-diiodo(N-exo(+)bicyclo[2.2.1]heptylamine)(1,3-di-methylbenzimidazol-2-ylidene)platinum(II)] |  |  | 5.57 | 5.96 | 5.39 | 5.85 | 5.39 |
| Cn1[c](=[Pt-]([I])([I])[NH2+]C2CC3CCC2C3)n(C)c2ccccc21 (single isomer, unassigned) [Example 17, trans-diiodo(N-exo(−)bicyclo[2.2.1]heptylamine)(1,3-dimethylbenzimidazol-2-ylidene)platinum(II)] |  |  | 5.66 | 5.96 | 5.96 | 5.74 | 5.30 |
| N.N.[Cl][Pt][Cl] [Cisplatin, cisplatin, reference compound] | 5.10 | < 5.00 | < 5.00 | 5.05 | 5.62 | 5.52 | 5.21 |
| Cn1ccn(CC2CCCCC2)[c]1=[Pt-]([I])([I])[NH2+]C1CCCCC1 [Example 3, trans-diiodo(N-cyclohexylamine)(1-methyl-3-cyclohexylmethylimidazol-2-ylidene)platinum(II)] | 5.64 | 5.70 | 5.92 | 6.00 | 5.42 | 5.70 | 5.28 |
| Cn1ccn(Cc2ccccc2)[c]1=[Pt-]([I])([I])[NH2+]C1CCCCC1 [Example 5, trans-diiodo(N-cyclohexylamine)(1-methyl-3-benzylimidazol-2-ylidene)platinum(II)] | 5.62 | 5.62 | 5.74 | 6.05 | 5.77 and 5.57 | 5.92 and 5.85 | 5.19 |
| Cn1c(=O)c2c(n(C)c1=O)n(C)[c](=[Pt-]([I])([I])[NH2+]C1CCCCC1)n2C [Example 9, trans-diiodo(N-cyclohexylamine)(1,3,7,9-tetramethylxanthin-8-ylidene)platinum(II)] | 5.66 | 5.68 | 5.85 | 5.74 | 5.80 | 5.57 | < 5.00 |
| COc1ccc(Cn2ccn(C)[c]2=[Pt]([I])([I])[NH]C2CCCCC2)cc1 [Example 10, trans-diiodo(N-cyclohexylamine)[1-methyl-3-(4-methoxybenzyl)-imidazol-2-ylidene]platinum(II)] |  |  | 5.64 | 5.80 | 5.42 | 5.80 | 5.28 |
| Cn1ccn(Cc2ccc(C(F)(F)F)cc2)[c]1=[Pt-]([I])([I])[NH2+]C1CCCCC1 [Example 11, trans-diiodo(N-cyclohexylamine)[1-methyl-3-(4-trifluoromethylbenzyl)imidazol-2-ylidene]platinum(II)] |  |  | 5.96 | 6.10 | 5.82 | 6.00 | 5.59 |
| [I][Pt-2]([I])([NH2+]C1CCCCC1)[c]1n(Cc2ccccc2)cc[n+]1Cc1ccccc1 [Example 12, trans-diiodo(N-cyclohexylamine)[1,3-dibenzylimidazol-2-ylidene]-platinum(II)] |  |  | 5.92 | 6.15 | 5.47 | 5.89 | 5.55 |
| Cn1ccn(Cc2ccc(C(F)(F)F)cc2)[c]1=[Pt-]([Br])([Br])[NH2+]C1CCCCC1 [Example 38, trans-dibromo(N-cyclohexylamine)[1-methyl-3-(4-trifluoromethyl-benzyl)imidazol-2-ylidene]platinum(II)] |  |  |  |  | 5.52 | 5.66 |  |
| O=C1[O][Pt]2([NH][C@@H]3CCCC[C@H]3[NH]2)[O]C1=O [Oxaliplatin, oxaliplatin, reference compound] | 5.38 | 5.21 | 4.76 | 5.41 | 5.40 | 6.05 | < 5.00 |
| CC(C)(C)[n+]1ccn(Cc2ccccc2)[c]1[Pt-2]([I])([I])[n+]1ccccc1 [Reference product, trans-diiodo(pyridine)(1-benzyl-3-tert-butylimidazol-2-ylidene)platinum(II), reference compound] |  |  |  |  | 5.36 | 5.41 |  |
| trans-diiodo(N-cyclohexylamine)(1-methyl-3-phenyl-1,2,4-triazol-5-ylidene)platinum(II) [Example 19] |  |  |  |  | 5.64 | 6.00 |  |
| trans-diiodo(N-cyclohexylamine)[3-benzyl-1-methyl-4-phenylimidazol-2-ylidene]platinum(II) [Example 21] |  |  |  |  | 5.72 | 6.05 |  |
